Assay results as given in US10420749B2, “Crystalline form of lorlatinib free base” (Pfizer Inc., priority 2015, dated 2019).
“Also recorded” adds a separate entry of the source.

Tests used:
Format in all cases: physicochemical
[1] = Thermodynamic stability: slurry experiments, solid form evaluated by PXRD; details: for Slurry Output (solid form): 2 weeks
Description: The thermodynamic stability of anhydrous lorlatinib free base (Form 7) was evaluated employing slurry experiments under a range of water activity and temperature conditions. […] After 2 weeks, the solids in equilibrium were isolated and the solid form was evaluated by PXRD.

[2] = Solid-state physical stability of Form 7 API at elevated humidity / accelerated conditions
Text: The physical stability of anhydrous lorlatinib free base (Form 7) API was investigated at elevated relative humidities (% RH) for extended time period and at accelerated stability conditions for shorter period.

[3] = Physical stability in the drug product by FT-Raman and Solid State NMR spectroscopy; details: for amount of physical impurity: in drug product
Text: The physical stabilities of lorlatinib Form 7 and acetic acid solvate in the drug product were investigated under a variety of conditions using FT-Raman and Solid State NMR spectroscopy.

SMILES: C[C@H]1Oc2cc(cnc2N)-c2c(nn(C)c2C#N)CN(C)C(=O)c2ccc(F)cc21 [Form 7, (10R)-7-amino-12-fluoro-2,10,16-trimethyl-15-oxo-10,15,16,17-tetrahydro-2H-8,4-(metheno)pyrazolo[4,3-h][2,5,11]benzoxadiazacyclotetradecine-3-carbonitrile]
- Slurry Output (solid form) ([1]; IPA, water activity 0.25, 5° C.): Form 16
- Slurry Output (solid form) ([1]; IPA, water activity 0.25, 40° C.): Form 7
- Slurry Output (solid form) ([1]; IPA, water activity 0.25, RT): Form 7
- Slurry Output (solid form) ([1]; IPA, water activity 0.50, 5° C.): Form 13
- Slurry Output (solid form) ([1]; IPA, water activity 0.50, 40° C.): Form 5
- Slurry Output (solid form) ([1]; IPA, water activity 0.50, RT): Form 13
- Slurry Output (solid form) ([1]; IPA, water activity 0.70, 5° C.): Form 13
- Slurry Output (solid form) ([1]; IPA, water activity 0.70, 40° C.): Form 5
- Slurry Output (solid form) ([1]; IPA, water activity 0.70, RT): Form 13
- Slurry Output (solid form) ([1]; IPA, water activity 0.90, 5° C.): Form 13
- Slurry Output (solid form) ([1]; IPA, water activity 0.90, 40° C.): Form 13
- Slurry Output (solid form) ([1]; IPA, water activity 0.90, RT): Form 13
- Slurry Output (solid form) ([1]; MiBK, water activity 0, 5° C.): Form 7
- Slurry Output (solid form) ([1]; MiBK, water activity 0, 40° C.): Form 7
- Slurry Output (solid form) ([1]; MiBK, water activity 0, RT): Form 7
- Slurry Output (solid form) ([1]; TBME, water activity 0, 5° C.): Form 7
- Slurry Output (solid form) ([1]; TBME, water activity 0, 40° C.): Form 7
- Slurry Output (solid form) ([1]; TBME, water activity 0, RT): Form 7
- Slurry Output (solid form) ([1]; Toluene, water activity 0, 5° C.): Form 7
- Slurry Output (solid form) ([1]; Toluene, water activity 0, 40° C.): Form 7
- Slurry Output (solid form) ([1]; Toluene, water activity 0, RT): Form 7
- Slurry Output (solid form) ([1]; Water, water activity 1.00, 5° C.): Form 7 + Form 18
- Slurry Output (solid form) ([1]; Water, water activity 1.00, 40° C.): Form 7
- Slurry Output (solid form) ([1]; Water, water activity 1.00, RT): Form 18
- Thermodynamic stability, overall outcome of slurry experiments ([1]; diverse solvent systems, 5° C., room temperature and 40° C., water activities 0.25 to 1.00, 2 weeks): does not convert to a different anhydrous solid state
- Slurry Output (solid form) ([1]; iProAc, water activity 0, 5° C.): Form 7
- Slurry Output (solid form) ([1]; iProAc, water activity 0, 40° C.): Form 7
- Slurry Output (solid form) ([1]; iProAc, water activity 0, RT): Form 7
- Slurry Output (solid form) ([1]; nBuOH, water activity 0, 5° C.): Form 7
- Slurry Output (solid form) ([1]; nBuOH, water activity 0, 40° C.): Form 7
- Slurry Output (solid form) ([1]; nBuOH, water activity 0, RT): Form 20
- Solid Form after storage (physical stability) ([2]; 70° C./75% RH, 1 week): did not undergo any physical change; also recorded: Form 7
- Solid Form after storage (physical stability) ([2]; 75% RH, ambient temperature, 12 months): did not undergo any physical change; also recorded: Form 7
- Solid Form after storage (physical stability) ([2]; 80° C./40% RH, 1 week): Form 7
- Physical change after storage (physical stability) ([2]; 80° C./75% RH, 1 week (as printed in text)): did not undergo any physical change
- Solid Form after storage (physical stability) ([2]; 90% RH, ambient temperature, 12 months): did not undergo any physical change; also recorded: Form 7
- amount of physical impurity ([3]; 25° C./60% RH, 12 months): No change detected
- amount of physical impurity ([3]; 30° C./65% RH, 12 months): No change detected
- amount of physical impurity ([3]; 50° C./75% RH, 2 weeks): No change detected
- amount of physical impurity ([3]; 70° C./10% RH, 3 weeks): No change detected
- amount of physical impurity ([3]; 70° C./40% RH, 2 weeks): No change detected
- amount of physical impurity ([3]; 70° C./75% RH, 1 week): No change detected
- physical stability relative to the acetic acid solvate of lorlatinib free base ([3]; representative drug product formulation): superior physical stability

SMILES: CC(=O)O.C[C@H]1Oc2cc(cnc2N)-c2c(nn(C)c2C#N)CN(C)C(=O)c2ccc(F)cc21 [lorlatinib acetic acid solvate, reference compound]
- amount of physical impurity ([3]; 70° C./10% RH, 3 weeks): impurity >50%
- amount of physical impurity ([3]; 70° C./40% RH, 2 weeks): impurity >50%
- amount of physical impurity ([3]; 70° C./75% RH, 1 week): impurity >50%
